Source: patent US10260079B2, “Method for producing ergothioneine by using soybean cake powder as nitrogen source in a seed medium” (TIANJIN INSTITUTE OF INDUSTRIAL BIOTECHNOLOGY, CHINESE …, priority 2014, dated 2019)
Where “and” joins values, the source holds several entries; their conditions need not be identical. Equal entries are not always repeated. Where two headings read alike, the source gives them in different places.

How the values were obtained:
[1] = test system: Pleurotus ostreatus mycelia CGMCC No. 6232; assay: Shake-flask fermentation, total content of ergothioneine in the fermentation broth by HPLC; format: cell-based
[2] = test system: Pleurotus ostreatus mycelia CGMCC No. 6232; assay: Shake-flask fermentation, content of extracellular ergothioneine in the filtrate by HPLC
Experimental: Seed medium: corn flour 30 g/L, soybean meal powder 15 g/L, α-amylase 80 U/L, KH2PO4 3 g/L, MgSO4.7H2O 1.5 g/L, and a balance of water. The seed medium was sterilized at 121° C. for 20 min, and the liquid volume in a 500 mL triangular flask was 150 mL. […] A lawn of the strain CGMCC No. 6232 was picked from the PDA slant and inoculated into the seed medium, cultured on a shaker at 150 rpm at 25° C. for 4 days, to obtain a seed liquor. […] The obtained permeate was the test sample for detection of the content of extracellular ergothioneine in the filtrate. […] The solutions were filtered with 0.22 μm millipore filter to obtain the reference solutions. Qualitative and quantitative detection: L-ergothioneine reference solutions and the test samples were detected by HPLC under the same chromatographic conditions. The chromatograms of the test samples were compared with those of the L-ergothioneine reference solutions, and the chromatographic peak of L-ergothioneine in the test sample was identified based on the retention time. A standard curve was plotted with the concentrations of L-ergothioneine reference solutions and the corresponding peak areas. In the case that the sample load of the reference solution was identical with that of the test sample, an external standard method was used for quantification so as to calculate the content of ergothioneine in the test sample. The concentration of ergothioneine in the test sample was the concentration of ergothioneine in the fermentation broth. Detection conditions: the chromatographic column was Agilent Eclipse XDB-C18 (4.6×250 mm, 5 μm), with two chromatographic columns in series; the mobile phase was 1% methanol solution, the pH of which was adjusted to 5.0 using acetic acid-sodium acetate buffer; the detection wavelength was 257 nm; the flow rate was 0.7 mL/min; the column temperature was 25° C.; and the sample load was 5 μL. […] Pleurotus ostreatus mycelia CGMCC No. 6232 were subjected to fermentation and culture.

Compound: CC(=O)N1CCN(c2ccc(OCC3COC(Cn4ccnc4)(c4ccc(Cl)cc4Cl)O3)cc2)CC1 (stereo not drawn) [Ketoconazole, reference compound]
- Content of ergothioneine in fermentation broth ([1]; Ketoconazole 0.5 mg/L added in fermentation medium): 127.6 ± 1.06 mg/L
- Content of ergothioneine in fermentation broth ([1]; Ketoconazole 1 mg/L added in fermentation medium): 130.7 ± 2.22 mg/L
- Content of ergothioneine in fermentation broth ([1]; Ketoconazole 5 mg/L added in fermentation medium): 134.1 mg/L and 134.1 ± 2.99 mg/L
- Content of ergothioneine in fermentation broth ([1]; Ketoconazole 10 mg/L added in fermentation medium): 132.5 ± 1.87 mg/L
- Content of ergothioneine in fermentation broth ([1]; Ketoconazole 50 mg/L added in fermentation medium): 128.9 ± 1.18 mg/L
- activation at 5 µg/mL ([1]; Pleurotus ostreatus, CGMCC6232, 360 h, Ketoconazole 5 mg/L, read-out: content of ergothioneine improved compared with control group): 9.6%
- content of extracellular ergothioneine in the filtrate ([2]; Ketoconazole 50 mg/L (highest)): 5.77 mg/L

Compound: Clc1ccc(COC(Cn2ccnc2)c2ccc(Cl)cc2Cl)c(Cl)c1 (stereo not drawn) [Miconazole, reference compound]
- Content of ergothioneine in fermentation broth ([1]; Miconazole 0.5 mg/L added in fermentation medium): 132.4 ± 2.96 mg/L
- Content of ergothioneine in fermentation broth ([1]; Miconazole 1 mg/L added in fermentation medium): 140.0 ± 3.28 mg/L
- Content of ergothioneine in fermentation broth ([1]; Miconazole 5 mg/L added in fermentation medium): 152.9 mg/L and 152.9 ± 4.22 mg/L
- Content of ergothioneine in fermentation broth ([1]; Miconazole 10 mg/L added in fermentation medium): 147.0 ± 3.09 mg/L
- Content of ergothioneine in fermentation broth ([1]; Miconazole 15 mg/L added in fermentation medium): 129.8 ± 2.11 mg/L
- activation at 5 µg/mL ([1]; Pleurotus ostreatus, CGMCC6232, 360 h, Miconazole 5 mg/L, read-out: content of ergothioneine improved compared with control group): 24.9%
- content of extracellular ergothioneine in the filtrate ([2]; Miconazole 50 mg/L (highest)): 9.14 mg/L

Compound: C[S+](C)[O-] [dimethyl sulfoxide]
- content of extracellular ergothioneine in the filtrate ([2]; dimethyl sulfoxide 2% (V/V) (highest)): 10.18 mg/L

Compound: CC(C)O [isopropyl alcohol]
- content of extracellular ergothioneine in the filtrate ([2]; isopropyl alcohol 2% (V/V) (highest)): 10.04 mg/L

Compound: tween 60
- Content of ergothioneine in fermentation broth ([1]; tween 60 2 g/L added in fermentation medium): 128.8 ± 1.51 mg/L
- Content of ergothioneine in fermentation broth ([1]; tween 60 5 g/L added in fermentation medium): 173.6 ± 2.98 mg/L
- content of ergothioneine improved compared with control group ([1]; tween 60 10 g/L): 74.9%
- Content of ergothioneine in fermentation broth ([1]; tween 60 10 g/L added in fermentation medium): 212.7 mg/L and 212.7 ± 4.52 mg/L
- Content of ergothioneine in fermentation broth ([1]; tween 60 20 g/L added in fermentation medium): 184.4 ± 3.78 mg/L
- Content of ergothioneine in fermentation broth ([1]; tween 60 40 g/L added in fermentation medium): 154.2 ± 2.63 mg/L
- Content of ergothioneine in fermentation broth ([1]; tween 60 50 g/L added in fermentation medium): 129.1 ± 2.1 mg/L
- content of extracellular ergothioneine in the filtrate ([2]; tween 60 5 g/L (highest)): 16.24 mg/L

Compound: O=C(O)CCCc1c[nH]c2ccccc12 [indolebutyric acid]
- Content of ergothioneine in fermentation broth ([1]; indolebutyric acid 0.1 mg/L added in fermentation medium): 130.9 ± 2.23 mg/L
- Content of ergothioneine in fermentation broth ([1]; indolebutyric acid 0.5 mg/L added in fermentation medium): 138.4 ± 1.29 mg/L
- content of ergothioneine improved compared with control group ([1]; indolebutyric acid 1 mg/L): 9.33%
- Content of ergothioneine in fermentation broth ([1]; indolebutyric acid 1 mg/L added in fermentation medium): 140.6 mg/L and 140.6 ± 3.09 mg/L
- Content of ergothioneine in fermentation broth ([1]; indolebutyric acid 2 mg/L added in fermentation medium): 137.7 ± 1.84 mg/L
- Content of ergothioneine in fermentation broth ([1]; indolebutyric acid 4 mg/L added in fermentation medium): 132.8 ± 0.93 mg/L

Compound: CC(=O)C(=O)O [pyruvic acid]
- activation at 2200 µg/mL ([1]; Pleurotus ostreatus, CGMCC6232, 360 h, pyruvic acid 2.2 g/L, read-out: content of ergothioneine improved compared with control group): 5.9%
- Content of ergothioneine in fermentation broth ([1]; pyruvic acid 0.05 g/L added in fermentation medium): 127.4 ± 0.57 mg/L
- Content of ergothioneine in fermentation broth ([1]; pyruvic acid 0.1 g/L added in fermentation medium): 128.6 ± 1.03 mg/L
- Content of ergothioneine in fermentation broth ([1]; pyruvic acid 0.5 g/L added in fermentation medium): 130.4 ± 0.82 mg/L
- Content of ergothioneine in fermentation broth ([1]; pyruvic acid 1.0 g/L added in fermentation medium): 131.9 ± 1.43 mg/L
- Content of ergothioneine in fermentation broth ([1]; pyruvic acid 2.2 g/L added in fermentation medium): 132.7 mg/L and 132.7 ± 0.46 mg/L
- Content of ergothioneine in fermentation broth ([1]; pyruvic acid 4.5 g/L added in fermentation medium): 128.7 ± 0.69 mg/L

Compound: OC(Cn1cncn1)(Cn1cncn1)c1ccc(F)cc1F [Fluconazole, reference compound]
- Content of ergothioneine in fermentation broth ([1]; Fluconazole 2 mg/L added in fermentation medium): 131.6 ± 1.92 mg/L
- Content of ergothioneine in fermentation broth ([1]; Fluconazole 5 mg/L added in fermentation medium): 137.2 ± 2.51 mg/L
- Content of ergothioneine in fermentation broth ([1]; Fluconazole 20 mg/L added in fermentation medium): 141.3 ± 3.27 mg/L
- Content of ergothioneine in fermentation broth ([1]; Fluconazole 50 mg/L added in fermentation medium): 146.4 mg/L and 146.4 ± 3.41 mg/L
- Content of ergothioneine in fermentation broth ([1]; Fluconazole 80 mg/L added in fermentation medium): 132.7 ± 3.39 mg/L
- activation at 50 µg/mL ([1]; Pleurotus ostreatus, CGMCC6232, 360 h, Fluconazole 50 mg/L, read-out: content of ergothioneine improved compared with control group): 19.6%
- content of extracellular ergothioneine in the filtrate ([2]; Fluconazole 50 mg/L (highest)): 7.67 mg/L

Compound: CCCCCCCC/C=C\CCCCCCCC(=O)OCCOCC(OCCO)C1OCC(OCCO)C1OCCO (stereo not drawn) [tween 80]
- activation at 10000 µg/mL ([1]; Pleurotus ostreatus, CGMCC6232, 360 h, tween 80 10 g/L, read-out: content of ergothioneine improved compared with control group): 78.5%
- Content of ergothioneine in fermentation broth ([1]; tween 80 0.5 g/L added in fermentation medium): 130.2 ± 1.56 mg/L
- Content of ergothioneine in fermentation broth ([1]; tween 80 2 g/L added in fermentation medium): 155.9 ± 2.7 mg/L
- Content of ergothioneine in fermentation broth ([1]; tween 80 5 g/L added in fermentation medium): 181.8 ± 3.95 mg/L
- Content of ergothioneine in fermentation broth ([1]; tween 80 10 g/L added in fermentation medium): 217 mg/L and 217 ± 4.37 mg/L
- Content of ergothioneine in fermentation broth ([1]; tween 80 20 g/L added in fermentation medium): 170.9 ± 4.43 mg/L
- Content of ergothioneine in fermentation broth ([1]; tween 80 40 g/L added in fermentation medium): 130.9 ± 1.61 mg/L
- content of extracellular ergothioneine in the filtrate ([2]; tween 80 10 g/L (highest)): 18.72 mg/L

Compound: O=C(O)CN(CCN(CC(=O)O)CC(=O)O)CC(=O)O [EDTA, ethylenediaminetetraacetic acid]
- content of extracellular ergothioneine in the filtrate ([2]; EDTA 0.5 g/L (highest)): 9.28 mg/L

Compound: N=C(N)NCCC[C@H](N)C(=O)O [arginine]
- activation at 2000 µg/mL ([1]; Pleurotus ostreatus, CGMCC6232, 360 h, read-out: content of ergothioneine improved compared with control group): 12.7%
